Experimental data published in patent US20210187085A1, “PHOSPHOLIPASE A2 RECEPTOR ANTIGENS AND THEIR MEDICAL USE” (The University of Manchester, priority 2017, published 2021).
pKd: −log10 of the molar value. Entries after “also recorded” stand apart in the source; their conditions may differ. Where a SMILES comes first, the peptide text is derived from it. Bridges are numbered along the chain shown (N, C = ends). Where no end group is shown, it is not given here.

How the values were obtained:
anti-PLA2R mouse 20 Ab [1] = experiment: ProteOn SPR, candidate peptide mouse 20 antibody binding kinetics; conditions: peptide immobilised on GLC chip, mouse 20 Ab 5-25 nM; for Ka: Langmuir 1:1
anti-PLA2R Mouse 20 Ab [2] = experiment: Ka 1/Ms
anti-PLA2R Mouse 20 Ab [3] = experiment: Kd 1/s
[4] = system: human Nottingham patient autoAb; experiment: PEPperCHIP peptide microarray substitution scan, phase 1; type: binding; conditions: Nottingham patient autoAbs
anti-PLA2R mouse 20 Ab [5] = experiment: Slot blot analysis with mouse 20 Ab; type: binding; conditions: for interaction with mouse 20 Ab in slot blot: 205 nm NanoDrop and ponceau S staining
Text: Incorporating the 205 nm NanoDrop and ponceau S staining the assessment of the peptide epitope library was undertaken with the mouse 20 Ab.

mouse 20 Ab = experiment: ELISA analysis of peptide epitope library; type: binding; conditions: 1.5 ng of peptide immobilised, absorbance 450 nm
Experimental: ELISA 96 well plates (ThermoScientific, 3455) were coated with 100 μL of 1.5 μg/mL peptide in 0.1M NaHCO3 pH 9.5 buffer overnight at 4° C. The solution was removed and wells blocked with 100 μL of superblock (ThermoScientific, 37515) for 1 hour. The solution was again removed and replaced with 100 μL of 2 μg/mL of mouse 20 Ab in superblock containing 0.05% Tween. The wells were then incubated for 2 hours at room temperature with constant shaking. The solutions were removed and washed nine times in PBST and then replaced with 100 μL horseradish peroxidase (HRP) conjugated goat anti-mouse IgG 1:5000 in superblock containing 0.05% Tween. The wells were again incubated for two hours at room temperature with constant shaking. The solutions were removed and washed nine times in PBST. 100 μL tetramethylebenzadine (Sigma, T4444) was added and incubated for 10 minutes at room temperature. 50 μL of sulphuric acid and absorbance measured on a well plate reader at 450 nm. Controls of peptide with secondary Ab and primary and secondary Ab were prepared.

human anti-PLA2R autoAbs = experiment: Slot blot analysis with human anti-PLA2R autoAbs; conditions: non-reducing conditions, FIG. 1 D

Compound	pKd (anti-PLA2R mouse 20 Ab [1])	Ka (anti-PLA2R mouse 20 Ab [1]) [M⁻¹ s⁻¹]	Ka (anti-PLA2R Mouse 20 Ab [2]) [M⁻¹ s⁻¹]	Kd (anti-PLA2R Mouse 20 Ab [3]) [s⁻¹]	other results
PIQSESLKK [listing 1 of 2 here]	~10.00	107000			
VIQSESLKK [listing 1 of 2 here]			2.27e+06	0.000136	
PIDSESLKK [listing 1 of 2 here]			1.79e+06	0.000143	
PIDSESLKK [listing 2 of 2 here]	~10.00	1.79e+06			
PIQSESLKK [listing 2 of 2 here]			107000	7.5e-05	
VIDSESLKK [listing 1 of 2 here]	~10.00	1.86e+06			
VIQSESLKK [listing 2 of 2 here]	~10.00	2.27e+06			
SVLTLENCK [Peptide 2]	~10.00	1.43e+06	1.43e+06	5.32e-05	
Head to Tail cyclic: head to tail cyclic 28mer (SEQ ID NO: 74) (KGCFVIQSESLKKSIQAGKSVLTLENCK; head-to-tail cyclisation) [listing 1 of 2 here]			1.55e+06	9.4e-05	
CC[C@H](C)[C@@H]1NC(=O)[C@@H](NC(=O)[C@H](CO)NC(=O)[C@H](CCC(=O)O)NC(=O)[C@H](CO)NC(=O)[C@H](CCC(N)=O)NC(=O)[C@@H](NC(=O)[C@@H](N)C(C)C)[C@@H](C)CC)CSSC[C@@H](C(=O)O)NC(=O)[C@H](CC(N)=O)NC(=O)[C@H](CCC(=O)O)NC(=O)[C@H](CC(C)C)NC(=O)[C@H]([C@@H](C)O)NC(=O)[C@H](CC(C)C)NC(=O)[C@H](C(C)C)NC(=O)[C@H](CO)NC(=O)[C@H](CCCCN)NC(=O)CNC(=O)[C@H](C)NC(=O)[C@H](CCC(N)=O)NC1=O [20mer] (H-VIQSESCIQAGKSVLTLENC-OH; disulfide 7-20)	~10.00	1.56e+06	1.56e+06	0.000134	autoAb binding in substitution scan (in words) ([4]; listed as Peptide platform 2c): successfully interact; also recorded: successfully bound; autoAb binding in substitution scan (in words) ([4]; listed as Peptide platform 3c): successfully interact; also recorded: successfully bound; interaction with mouse 20 Ab in slot blot (anti-PLA2R mouse 20 Ab [5]; peptide epitope library): little to no association; association with mouse 20 Ab in ELISA (mouse 20 Ab): little to no association
VIDSESLKK [listing 2 of 2 here]			1.86e+06	0.00014	
Head to Tail cyclic: head to tail cyclic 28mer (SEQ ID NO: 74) (KGCFVIQSESLKKSIQAGKSVLTLENCK; head-to-tail cyclisation) [listing 2 of 2 here]	~10.00	1.55e+06			slot blot staining with human anti-PLA2R autoAbs (human anti-PLA2R autoAbs): stained positive; slot blot staining with anti-PLA2R mouse 20 Ab (anti-PLA2R mouse 20 Ab [5]; non-reducing conditions, FIG. 1 D): stained positive; slot blot intensity of interaction with mouse 20 Ab (anti-PLA2R mouse 20 Ab [5]; peptide epitope library): highest intensity; interaction with mouse 20 Ab in slot blot (anti-PLA2R mouse 20 Ab [5]; peptide epitope library, listed as head to tail 28mer): found to interact; also recorded: displayed association; association with mouse 20 Ab in ELISA (mouse 20 Ab): displayed association
